Patent publication US20060216362A1, “Remedy” (priority 2003, published 2006)

Legend:
Assay type in all cases: cell-based
[1] = system: mature adipocytes (3T3-L1 cells); assay: Glucose uptake enhancement inhibited by cytochalasin B (glucose transporter inhibitor)
Description: The influence of cytochalasin B on 2-deoxyglucose uptake into mature adipocytes stimulated with the sample in the adipocytes was tested in accordance with the method described in Example 17 on whether or not the enhancing action of the ethanol extract fraction from Polygonum hydropiper obtained in Example 15 on glucose uptake is inhibited by cytochalasin B, which is an inhibitor of a glucose transporter.
Specifically, as a sample, there was set a group with addition of a dimethyl sulfoxide solution of the ethanol extract fraction from Polygonum hydropiper so as to have a final concentration of 0.05% to a well (treatment for a short period of time). There were set a group without addition of the sample as a negative control, and a group with addition of insulin so as to have a final concentration of 1 μg/mL as a positive control. Furthermore, in each group, there was set a group with addition of cytochalasin B (manufactured by Nacalai Tesque, Inc., 10435-81) so as to have a final concentration of 40 μM at the same time as the time of addition of insulin or the sample. Thereafter, the amount of 2-deoxy-[1,2^3H(N)]-glucose taken into the adipocytes was determined in the same manner.

[2] = system: Preadipocyte cell line 3T3-L1; assay: Induction of differentiation into adipocytes, determined as amount of biosynthesis of triglyceride; conditions: positive control, 4 μl then 2 μl of a 5 mg/ml aqueous solution per 2 ml well
Description: There have been known that insulin enhances induction of differentiation of preadipocytes into adipocytes, and that glucose uptake takes place in matured adipocytes thereby accumulating triglyceride in the adipocytes (J. Biol. Chem., Vol. 253, No. 20, P7570-7578 (1978)). Specifically, utilizing this method, an insulin-mimetic action of a test substance can be determined by administering a test substance in place of insulin, and determining differentiation into an adipocyte and the amount of triglyceride in the adipocytes.
The induction of differentiation into adipocytes was carried out by partially modifying the above-mentioned method of Rubin C. S. et al. (J. Biol. Chem., Vol. 253, No. 20, P7570-7578 (1978)). Preadipocyte cell line 3T3-L1 (ATCC CCL-92.1) was suspended in a 10% fetal bovine serum (manufactured by GIBCO)-containing Dulbecco's modified Eagle's medium (manufactured by Sigma, D6046) containing 200 μM ascorbic acid (hereinafter referred to as A-D-MEM medium) so as to have a density of 4×10^3 cells/ml, and the suspension was put in each well of a 12-well microtiter plate in an amount of 2 ml per well. The cells were cultured at 37° C. for 7 days in the presence of 5% carbon dioxide gas. […]
The amount of triglyceride in the adipocytes was determined as an index for inducing differentiation into matured adipocytes, and as evaluation of insulin-mimetic action. […]

[3] = system: mature adipocytes (3T3-L1 cells); assay: Enhancing action on glucose uptake: 2-deoxy-[1,2-3H(N)]-glucose uptake into mature adipocytes; conditions: positive control, final concentration 1 μg/mL, added when 45 minutes passed; vs negative control
Description: In addition, there have been known that insulin has an enhancing action on glucose uptake into a cell, and that glucose uptake into the cell is enhanced by the action of insulin in a matured adipocyte (J. Biol. Chem., Vol. 253, No. 20, P7579-7583 (1978)). Specifically, utilizing this method, an insulin-mimetic action of a test substance can be determined by administering a test substance in place of insulin, and determining the amount of glucose uptake into a matured adipocyte.
The induction of differentiation into mature adipocytes was carried out by partially modifying the method of Rubin C. S. et al. 3T3-L1 cells were suspended in a 10% fetal bovine serum-containing Dulbecco's modified Eagle's medium (manufactured by Sigma, D6046) containing 200 μM ascorbic acid so as to have a density of 4×10^3 cells/ml, and the suspension was put in each well of a 12-well microtiter plate in an amount of 2 ml per well. The cells were cultured at 37° C. for 7 days in the presence of 5% carbon dioxide gas. […]
As the evaluation of enhancing action on glucose uptake, and also as the evaluation of insulin-mimetic action, the amount of 2-deoxyglucose uptake into mature adipocytes stimulated with the sample (the above-mentioned extract fraction from Corchorus olitorius) in the adipocytes was determined. […]

[4] = system: mature adipocytes (3T3-L1 cells); assay: Synergistic action of ethanol extract fraction and low-concentration insulin to enhance glucose uptake; conditions: insulin alone, final concentration 0.01 μg/mL, 30 minutes; vs negative control
Description: As the evaluation of synergistic action of the ethanol extract fraction from Polygonum hydropiper prepared in Example 15 and a low-concentration insulin to enhance glucose uptake, the amount of 2-deoxyglucose uptake into mature adipocytes stimulated with the sample (the above-mentioned extract fraction from Polygonum hydropiper and insulin) was determined partly in accordance with the method described in Example 17. The mature adipocytes were prepared in accordance with the method described in Example 3.
After the termination of the culture, the medium was removed, and the cells were washed twice with a 0.1% (w/v) bovine serum albumin-containing Dulbecco's modified Eagle's medium. Thereafter, the cells were cultured overnight at 37° C. in the presence of 5% carbon dioxide gas. After the overnight culture, the cells were washed twice with a HEPES buffered saline (140 mM NaCl, 5 mM KCl, 2.5 mM MgSO4, 1 mM CaCl2, 20 mM HEPES-Na (pH 7.4)). The amount 0.9 mL of the same buffer was added thereto, and the cells were cultured at 37° C. for 45 minutes. […] Thereafter, 2-deoxy-[1,2-3H(N)]-glucose taken into the adipocytes was determined in the same manner as the method described in Example 3.

Row | Compound | effect on 2-deoxy-[1,2-3H(N)]-glucose uptake ([1]; cytochalasin B 40 μM added at the same time as insulin or sample, in every group) | enhancement of 2-deoxy-[1,2-3H(N)]-glucose uptake ([1]; positive control, final concentration 1 μg/mL, without cytochalasin B, vs negative control) | induction of triglyceride biosynthesis (differentiation into adipocytes) [2] | enhancement of 2-deoxy-[1,2-3H(N)]-glucose uptake [3] | enhancement of 2-deoxy-[1,2-3H(N)]-glucose uptake [4]
1 | C=C1[C@@H](C)[C@H]2[C@H](Cc3ccccc3)NC(=O)[C@]23OC(=O)/C=C/[C@H](O)CCC[C@@H](C)C/C=C/[C@H]3[C@@H]1O [cytochalasin B] | almost completely inhibited | – | – | – | –
2 | insulin | – | enhancement of 2-deoxy-[1,2^3H(N)]-glucose uptake was found | induction of triglyceride biosynthesis could be also confirmed | enhancement of 2-deoxy-[1,2^3H(N)]-glucose uptake was found | enhancement of 2-deoxy-[1,2^3H(N)]-glucose uptake was found
